Consider three molecules from patent US20180258381A1, “BIO-LAMINA BIOREACTORS AND METHODS OF MAKING AND USING THE SAME” (Oregon State University, priority 2015, published 2018).

The target of experiment [1] is T1, sMMO (Methylosinus trichosporium, UniProt P27353).
T1 construct: endogenous in cells; host or cells: M. trichosporium OB3b whole cells, grown without copper (chemostat or batch)
T1 sequence (P27353 1-526): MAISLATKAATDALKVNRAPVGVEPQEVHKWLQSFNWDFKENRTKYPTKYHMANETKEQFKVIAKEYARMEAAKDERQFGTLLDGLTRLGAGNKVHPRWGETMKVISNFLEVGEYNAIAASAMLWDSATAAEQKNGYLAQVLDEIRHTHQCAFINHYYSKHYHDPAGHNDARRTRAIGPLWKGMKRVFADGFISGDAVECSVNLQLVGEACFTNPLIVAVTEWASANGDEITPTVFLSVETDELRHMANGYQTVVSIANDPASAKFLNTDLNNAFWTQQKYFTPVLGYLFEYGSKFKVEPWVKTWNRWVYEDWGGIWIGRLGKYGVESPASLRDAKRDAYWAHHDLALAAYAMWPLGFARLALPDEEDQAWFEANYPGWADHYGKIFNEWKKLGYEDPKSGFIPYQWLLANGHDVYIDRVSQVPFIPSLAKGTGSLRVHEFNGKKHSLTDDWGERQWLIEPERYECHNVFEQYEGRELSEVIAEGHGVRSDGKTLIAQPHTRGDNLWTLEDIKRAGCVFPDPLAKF
T1 sequence (P27354 1-394 partner): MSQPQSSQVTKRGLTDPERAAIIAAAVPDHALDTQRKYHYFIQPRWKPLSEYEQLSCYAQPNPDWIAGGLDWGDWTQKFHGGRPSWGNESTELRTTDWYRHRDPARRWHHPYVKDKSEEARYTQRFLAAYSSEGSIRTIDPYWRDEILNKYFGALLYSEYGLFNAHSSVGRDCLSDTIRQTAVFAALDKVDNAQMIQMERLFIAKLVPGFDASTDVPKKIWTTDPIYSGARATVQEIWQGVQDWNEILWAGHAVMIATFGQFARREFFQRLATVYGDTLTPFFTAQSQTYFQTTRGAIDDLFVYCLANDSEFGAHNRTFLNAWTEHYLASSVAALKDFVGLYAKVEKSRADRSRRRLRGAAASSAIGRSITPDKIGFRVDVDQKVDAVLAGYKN
T1 sequence (P27355 1-169 partner): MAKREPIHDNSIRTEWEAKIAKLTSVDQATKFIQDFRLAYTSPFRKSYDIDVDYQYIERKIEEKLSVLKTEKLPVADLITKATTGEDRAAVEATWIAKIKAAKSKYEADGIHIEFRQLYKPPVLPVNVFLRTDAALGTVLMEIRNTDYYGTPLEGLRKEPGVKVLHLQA
The experiment can be described thus: sMMO activity reactivity assay, inhibitor trials. It is filed as cell-based, M. trichosporium OB3b. On the procedure: M. trichosporium OB3b cultures were grown under plus copper (pMMO expressed) or minus copper (sMMO expressed) conditions using chemostat or batch culture conditions. Aliquots of culture (˜100 ml) were harvested by centrifugation, and concentrated 50-fold in fresh media. Pelleting cells in this manner ensured that all residual methane was eliminated, increased ease of measuring protein, and made activity assays as brief as possible. Assays were performed in 30 ml crimp cap reaction vials with 4 ml of media (either +Cu or −Cu) with 10 mM sodium formate. To initiate assays, 100 µl of the 50× cell suspension was added to reaction vials with a plastic syringe. Short descriptions of activity assays follow.
Due to the relative insolubility of methane, large volumes should be added to reaction vials to achieve concentrations in the aqueous phase (Cw) above the concentration of methane where the velocity of methane consumption (V) is equal to 0.5Vmax for minus copper grown M. trichosporium OB3b cultures. These large methane additions make direct measurement of methane consumption in short-term assays unlikely, therefore the accumulation of ethylene oxide (ETO) upon the oxidation of ethylene (ETH) was used as a surrogate measurement. Reaction vials were prepared as described above and 5 ml of ETH added as an overpressure. The appearance of ETO was monitored by gas chromatography evaluation of Cw over the course of 30 minutes (FIG. 39A). Killed cells (boiled) served as a negative control. pMMO is a copper enzyme and can be inhibited by allylthiourea (ATU), while sMMO (an iron enzyme) is insensitive to inhibition by ATU. The ETH to ETO assay described above was repeated with 10 μM ATU to discriminate between sMMO and pMMO activity.
(§1) Metabolic activity test methods have been developed to monitor specific activities in M. trichosporium OB3b cultures. A naphthalene oxidation assay was used to determine if sMMO is being expressed. An ethylene to ethylene oxide reaction assay and a methane oxidation assay was used to quantify MMO activity, and a methanol oxidation assay was used to estimate MDH activity. Concurrent batch metabolic tests can be conducted to investigate methanol inhibition of methane oxidation, cyclopropane to cyclopropanol conversion and concurrent/subsequent cyclopropanol inhibition of MDH activity, the effect of cyclopropanol inhibition on growth yield, and the effects of high oxygen concentration. Once stable operation and baseline metabolic monitoring in the chemostat have been achieved, inhibitor can be added to evaluate chemostat operation under methanol-producing conditions.
MMO activity has been measured via both methane (CH4) consumption and ethylene oxide (ETO) production upon oxidation of the non-growth substrate ethylene (ETH, Table 4). While ETO production matches methane consumption for pMMO, ETH is not as good a substrate for sMMO as methane. Nevertheless, the ETO accumulation assay is quick (<30 min) and can be used to screen for activity before starting a larger experiment.
(§2) The effect of salts NaCl, NH4Cl and CaCl2 on MMO and MDH activity was evaluated using the reactivity assays described above.

The test system of experiment [2] is MDH. The experiment is described as follows: MDH activity reactivity assay (methanol SOUR), inhibitor trials. In kind it is cell-based, M. trichosporium OB3b. The note with it: for selective inhibition of MDH activity versus MMO: salts tested on MMO and MDH activity. On the procedure: The procedure for measuring methanol dehydrogenase (MDH) activity by measuring the specific oxygen uptake rate (SOUR) has been tested on M. trichosporium OB3b cultures grown both in batch and in the chemostat. M. trichosporium OB3b cells were harvested using centrifugation. The supernatant was poured off and the cells were re-suspended in fresh media lacking a carbon source. Phosphate buffer solution was added to a sample chamber in which dissolved oxygen (DO) was measure with a DO probe. When the DO of the solution stabilized, the re-suspended cells were added to the sample chamber to measure baseline oxygen uptake by the cells without a carbon food source present. Methanol was then added to test for MDH activity. The difference in the oxygen uptake rates illustrates the MDH activity of the culture.
as §1, with “concentration.” for “concentration. Once stable operation and baseline metabolic monitoring in the chemostat have been achieved, inhibitor can be added to evaluate chemostat operation under methanol-producing conditions.”
as §2

For the molecule `[Ca+2].[Cl-].[Cl-]` [CaCl2], the “Fraction of Activity Remaining, sMMO” value in experiment [1] (CaCl2 10 mmol) turned out to be 0.41; in experiment [1] (CaCl2 20 mmol), 0.29; in experiment [1] (CaCl2 40 mmol), 0.20. The “Fraction of Activity Remaining, MDH” value in experiment [2] (CaCl2 10 mmol) is given as 0.71; in experiment [2] (CaCl2 40 mmol), 0.45; in experiment [2] (CaCl2 66 mmol), 0.35. In addition, the “selective inhibition of MDH activity versus MMO” value (“selective inhibition” for short) in experiment [2] is listed as “None of the salts were effective”.

Turning to `Cl.N` [NH4Cl], the “selective inhibition” value in experiment [2] is recorded as “None of the salts were effective”.

Take `[Cl-].[Na+]` [NaCl]: in experiment [2], the “selective inhibition” value is listed as “None of the salts were effective”.
